Values quoted from earlier work in patent US20250332126A1, “TOPICAL COMPOSITION FOR PAIN RELIEF” (JOHNSON & JOHNSON CONSUMER INC., priority 2022, published 2025).

Conditions: at 20° C.
In the case of `CC(C)O` [isopropanol], the vapor pressure is given as 4.40 kPa. For `CCO` [ethanol], the vapor pressure is given as 5.95 kPa. In the case of `CO` [methanol], the vapor pressure is given as 11.9 kPa.
